Results: patent US20240158348A1, “HERBICIDAL CYCLIC AMIDES N-SUBSTITUTED WITH A HALOALKYLSULFONYLANILIDE GROUP” (FMC Corporation, priority 2021, published 2024)

Tests used:
Assay type in all cases: in vivo
[1] = system: barnyardgrass (Echinochloa crus-galli); experiment: Test A preemergence, barnyardgrass; details: 10 days
Excerpt: (§1) Seeds of plant species selected from barnyardgrass (Echinochloa crus-galli), blackgrass (Alopecurus myosuroides), corn (Zea mays), foxtail, giant (giant foxtail, Setaria faberi), goosegrass (Eleusine indica), kochia (Bassia scoparia), oat, wild (wild oat, Avena fatua), pigweed, palmer (palmer amaranth, Amaranthus palmeri), pigweed, redroot (redroot pigweed, Amaranthus retroflexus), ragweed (common ragweed, Ambrosia artemisiifolia), ryegrass, Italian (Italian ryegrass, Lolium multiflorum), soybean (Glycine max), and wheat (Triticum aestivum) were planted into a blend of loam soil and sand and treated preemergence with a directed soil spray using test chemicals formulated in a non-phytotoxic solvent mixture which included a surfactant.
(§2) At the same time, plants selected from these crop and weed species and also galium (catchweed bedstraw, Galium aparine) and horseweed (Erigeron canadensis) were planted in pots containing the same blend of loam soil and sand and treated with postemergence applications of test chemicals formulated in the same manner. Plants ranged in height from 2 to 10 cm and were in the one- to two-leaf stage for the postemergence treatment. Treated plants and untreated controls were maintained in a greenhouse for 10 days, after which time all treated plants were compared to untreated controls and visually evaluated for injury. Plant response ratings, summarized in Table A, are based on a 0 to 100 scale where 0 is no effect and 100 is complete control. A dash (-) response means no test result.

[2] = system: pigweed, redroot (redroot pigweed, Amaranthus retroflexus); experiment: Test A preemergence, redroot pigweed; details: 0 to 100 scale, 10 days
Excerpt: as §1, §2

[3] = system: barnyardgrass (Echinochloa crus-galli); experiment: Test A postemergence, barnyardgrass; details: 0 to 100 scale, 10 days
Excerpt: as §1, §2

[4] = system: pigweed, redroot (redroot pigweed, Amaranthus retroflexus); experiment: Test A postemergence, redroot pigweed; details: 0 to 100 scale, 10 days
Excerpt: as §1, §2

[5] = 125 g ai/ha, 0 to 100 scale (0 no effect, 100 complete control)

C#CCOC1CCN(c2cc(NS(=O)(=O)C(F)(F)F)c(C)cc2C)C1=O (stereo not shown) [Compound 1, N-[2,4-dimethyl-5-[2-oxo-3-(2-propyn-1-yloxy)-1-pyrrolidinyl]phenyl]-1,1,1-trifluoromethanesulfonamide]
Plant response rating, Barnyardgrass ([1]; 31 g ai/ha, 0 to 100 scale): 80 | Plant response rating, Barnyardgrass [1, 5]: 100 | Plant response rating, Pigweed, Redroot ([2]; 31 g ai/ha): 90 | Plant response rating, Pigweed, Redroot ([2]; 125 g ai/ha): 100 | Plant response rating, Barnyardgrass ([3]; 31 g ai/ha): 80 | Plant response rating, Barnyardgrass ([3]; 125 g ai/ha): 90 | Plant response rating, Pigweed, Redroot ([4]; 31 g ai/ha): 80 | Plant response rating, Pigweed, Redroot ([4]; 125 g ai/ha): 90

C=CCOC1CCN(c2cc(NS(=O)(=O)C(F)(F)F)c(C)cc2C)C1=O (stereo not shown) [Compound 2, N-[2,4-dimethyl-5-[2-oxo-3-(2-propen-1-yloxy)-1-pyrrolidinyl]phenyl]-1,1,1-trifluoromethanesulfonamide]
Plant response rating, Barnyardgrass ([1]; 31 g ai/ha, 0 to 100 scale): 0 | Plant response rating, Barnyardgrass [1, 5]: 100 | Plant response rating, Pigweed, Redroot ([2]; 31 g ai/ha): 90 | Plant response rating, Pigweed, Redroot ([2]; 125 g ai/ha): 100 | Plant response rating, Barnyardgrass ([3]; 31 g ai/ha): 30 | Plant response rating, Barnyardgrass ([3]; 125 g ai/ha): 90 | Plant response rating, Pigweed, Redroot ([4]; 31 g ai/ha): 90 | Plant response rating, Pigweed, Redroot ([4]; 125 g ai/ha): 90
